Data reported in patent US12247010B2, “Tubulin inhibitors” (LIN BIOSCIENCE PTY LTD., priority 2017, dated 2025).

System: U87MG cells
Assay: Cytotoxicity assay (cell viability, CellTiter 96 Aqueous MTS)
Assay type: cell-based
Settings: Homo sapiens, U-87 MG, 72 h, 72 hours incubation, starting concentration 50 uM, 9 point half log dilution, average where tested repeatedly
Description: Example 3: Cytotoxicity Assay
U87MG cells were plated at a density of 7×10^3 cells/well and allowed to seed overnight. Cells were then treated with compounds from Table 1 or CMPD-1 (4-(2′-fluoro-[1,1′-biphenyl]-4-yl)-N-(4-hydroxyphenyl)butanamide as a positive control) were added to cells at a starting concentration of 50 uM, with a 9 point half log dilution, and incubated for 72 hours prior to viability determination. IC50 values were calculated from cell viability as measured using the CellTiter 96® Aqueous MTS reagent from Promega©, and the results are shown in Table 2.

SMILES | IC50 [nM]
Cc1nc(C(=O)NCCCc2ccc(-c3ccccc3F)cc2)cs1 [Compound 141, N-(3-(2′-fluoro-[1,1′-biphenyl]-4-yl)propyl)-2-methylthiazole-4-carboxamide] | > 5000
CC(C)c1cc(C(=O)NCCCc2ccc(-c3ccccc3F)cc2)n(C)n1 [Compound 142, N-(3-(2′-fluoro-[1,1′-biphenyl]-4-yl)propyl)-3-isopropyl-1-methyl-1H-pyrazole-5-carboxamide] | > 5000
Cn1nc2ccccc2c1C(=O)NCCCc1ccc(-c2ccccc2F)cc1 [Compound 143, N-(3-(2′-fluoro-[1,1′-biphenyl]-4-yl)propyl)-2-methyl-2H-indazole-3-carboxamide] | > 5000
Cc1noc(C)c1C(=O)NCCCc1ccc(-c2ccccc2F)cc1 [Compound 144, N-(3-(2′-fluoro-[1,1′-biphenyl]-4-yl)propyl)-3,5-dimethylisoxazole-4-carboxamide] | > 5000
Cc1cnoc1C(=O)NCCCc1ccc(-c2ccccc2F)cc1 [Compound 145, N-(3-(2′-fluoro-[1,1′-biphenyl]-4-yl)propyl)-4-methylisoxazole-5-carboxamide] | > 5000
Cn1cc(C(=O)NCCCc2ccc(-c3ccccc3F)cc2)cn1 [Compound 146, N-(3-(2′-fluoro-[1,1′-biphenyl]-4-yl)propyl)-1-methyl-1H-pyrazole-4-carboxamide] | 1000 to 5000
Cn1ncc2cc(-c3ccc(CCCC(=O)Nc4cccnc4)cc3)ccc21 [Compound 148, 4-(4-(1-methyl-1H-indazol-5-yl)phenyl)-N-(pyridin-3-yl)butanamide] | < 500
O=C(CCCc1ccc(-c2cccc(F)c2F)cc1)Nc1cccnc1 [Compound 149, 4-(2′,3′-difluoro-[1,1′-biphenyl]-4-yl)-N-(pyridin-3-yl)butanamide] | 501 to 1000
O=C(CCCc1ccc(-c2ccccc2)cc1)Nc1cccnc1 [Compound 151, 4-([1,1′-biphenyl]-4-yl)-N-(pyridin-3-yl)butanamide] | 1000 to 5000
Cc1ccccc1-c1ccc(CCCC(=O)Nc2cccnc2)cc1 [Compound 152, 4-(2′-methyl-[1,1′-biphenyl]-4-yl)-N-(pyridin-3-yl)butanamide] | > 5000
Cc1ccc(-c2ccc(CCCC(=O)Nc3cccnc3)cc2)cn1 [Compound 153, 4-(4-(6-methylpyridin-3-yl)phenyl)-N-(pyridin-3-yl)butanamide] | > 5000
O=C(CCCc1ccc(-c2ccccc2OC(F)(F)F)cc1)Nc1cccnc1 [Compound 154, N-(pyridin-3-yl)-4-(2′-(trifluoromethoxy)-[1,1′-biphenyl]-4-yl)butanamide] | 1000 to 5000
O=C(CCCc1ccc(-c2ccc(C(F)(F)F)nc2)cc1)Nc1cccnc1 [Compound 155, N-(pyridin-3-yl)-4-(4-(6-(trifluoromethyl)pyridin-3-yl)phenyl)butanamide] | 501 to 1000
Cc1cc(-c2ccc(CCCC(=O)Nc3cccnc3)cc2)ccn1 [Compound 156, 4-(4-(2-methylpyridin-4-yl)phenyl)-N-(pyridin-3-yl)butanamide] | > 5000
O=C(CCCc1ccc(-c2ccc(F)cc2F)cc1)Nc1cccnc1 [Compound 157, 4-(2′,4′-difluoro-[1,1′-biphenyl]-4-yl)-N-(pyridin-3-yl)butanamide] | 1000 to 5000
O=C(CCCc1ccc(-c2cccnc2)cc1)Nc1cccnc1 [Compound 158, N-(pyridin-3-yl)-4-(4-(pyridin-3-yl)phenyl)butanamide] | > 5000
O=C(CCCc1ccc(-c2c(F)cccc2F)cc1)Nc1cccnc1 [Compound 159, 4-(2′,6′-difluoro-[1,1′-biphenyl]-4-yl)-N-(pyridin-3-yl)butanamide] | 1000 to 5000

SMILES | IC50 [nM]
O=C(CCCc1ccc(-c2ccccc2Cl)cc1)Nc1cccnc1 [Compound 160, 4-(2′-chloro-[1,1′-biphenyl]-4-yl)-N-(pyridin-3-yl)butanamide] | 1000 to 5000
O=C(CCCc1ccc(-c2ccc3nonc3c2)cc1)Nc1cccnc1 [Compound 161, 4-(4-(benzo[c][1,2,5]oxadiazol-5-yl)phenyl)-N-(pyridin-3-yl)butanamide] | > 5000
O=C(CCCc1ccc(-c2ccc3c(c2)OCCO3)cc1)Nc1cccnc1 [Compound 162, 4-(4-(2,3-dihydrobenzo[b][1,4]dioxin-6-yl)phenyl)-N-(pyridin-3-yl)butanamide] | 501 to 1000
O=C(CCCc1ccc(-c2ccc3ncccc3c2)cc1)Nc1cccnc1 [Compound 163, N-(pyridin-3-yl)-4-(4-(quinolin-6-yl)phenyl)butanamide] | < 500
Cn1cc2cc(-c3ccc(CCCC(=O)Nc4cccnc4)cc3)ccc2n1 [Compound 164, 4-(4-(2-methyl-2H-indazol-5-yl)phenyl)-N-(pyridin-3-yl)butanamide] | 501 to 1000
Cn1cc2c(-c3ccc(CCCC(=O)Nc4cccnc4)cc3)cccc2n1 [Compound 165, 4-(4-(2-methyl-2H-indazol-4-yl)phenyl)-N-(pyridin-3-yl)butanamide] | 1000 to 5000
Cn1ncc2ccc(-c3ccc(CCCC(=O)Nc4cccnc4)cc3)cc21 [Compound 166, 4-(4-(1-methyl-1H-indazol-6-yl)phenyl)-N-(pyridin-3-yl)butanamide] | 1000 to 5000
COc1ccc(-c2ccc(CCCC(=O)Nc3cccnc3)cc2)cn1 [Compound 167, 4-(4-(6-methoxypyridin-3-yl)phenyl)-N-(pyridin-3-yl)butanamide] | > 5000
COc1ccc(-c2ccc(CCCC(=O)Nc3cccnc3)cc2)cc1OC [Compound 168, 4-(3′,4′-dimethoxy-[1,1′-biphenyl]-4-yl)-N-(pyridin-3-yl)butanamide] | 1000 to 5000
Cn1ccc2cc(-c3ccc(CCCC(=O)Nc4cccnc4)cc3)ccc21 [Compound 169, 4-(4-(1-methyl-1H-indol-5-yl)phenyl)-N-(pyridin-3-yl)butanamide] | 501 to 1000
O=C(CCCc1ccc(-c2ccc3ocnc3c2)cc1)Nc1cccnc1 [Compound 173, 4-(4-(benzo[d]oxazol-5-yl)phenyl)-N-(pyridin-3-yl)butanamide] | 501 to 1000
COc1ccc(F)c(-c2ccc(CCCC(=O)Nc3cccnc3)cc2)c1 [Compound 175, 4-(2′-fluoro-5′-methoxy-[1,1′-biphenyl]-4-yl)-N-(pyridin-3-yl)butanamide] | 501 to 1000
O=C(CCCc1ccc(-c2cn[nH]c2)cc1)Nc1cccnc1 [Compound 176, 4-(4-(1H-pyrazol-4-yl)phenyl)-N-(pyridin-3-yl)butanamide] | > 5000
O=C(CCCc1ccc(-c2ccc3c(c2)NC(=O)C3)cc1)Nc1cccnc1 [Compound 177, 4-(4-(2-oxoindolin-6-yl)phenyl)-N-(pyridin-3-yl)butanamide] | 501 to 1000
COc1ncccc1-c1ccc(CCCC(=O)Nc2cccnc2)cc1 [Compound 178, 4-(4-(2-methoxypyridin-3-yl)phenyl)-N-(pyridin-3-yl)butanamide] | > 5000
O=C(CCCc1ccc(-c2cc(Cl)ccc2F)cc1)Nc1cccnc1 [Compound 179, 4-(5′-chloro-2′-fluoro-[1,1′-biphenyl]-4-yl)-N-(pyridin-3-yl)butanamide] | > 5000
Cc1c(-c2ccc(CCCC(=O)Nc3cccnc3)cc2)ccc2[nH]ncc12 [Compound 180, 4-(4-(4-methyl-1H-indazol-5-yl)phenyl)-N-(pyridin-3-yl)butanamide] | < 500
